Measured values: publication PMC10053710, “Influence of Lipidation Pattern of the KR12 Fragment of Peptide LL-37 on Its Antibacterial and Hemolytic Activities” (International Journal of Molecular Sciences, 2023)
Converted amounts (≈) assume the structure as drawn. Where a SMILES comes first, the peptide text is derived from it. The star is where a group is joined. Octanoyl = CCCCCCCC(=O)*

Key:
[1] = RP-HPLC adjusted retention time as measure of hydrophobicity; type: physicochemical; conditions: chromatographic, Phenomenex Gemini-NX C18 4.6 × 150 mm, linear gradient 10–100% B (0.1% TFA in ACN) in A (0.1% aqueous TFA) over 10 min, 25 °C, 0.5 mL/min, UV 214 nm; used as hydrophobicity measure
From the text: The identity of the purified peptides was confirmed using electrospray ionization mass spectrometry (ESI-MS) in positive ion mode and the results are shown in Table S1 (Supplementary Materials).
The conjugation of KR12-NH2 with aliphatic and aromatic acids affords more hydrophobic compounds than the parent molecule, but it depends on the modified amino group involved. The conjugation of C8 to N^α amino group of the N-terminal amino acid gives a more distinct increase in hydrophobicity than that of C8 in the sidechain of lysine residues (i.e., II vs. III; IV vs. V). […] Moreover, in the acidic conditions of the mobile phase (0.1% TFA; pH 2,) both amino groups are protonated. Hypothetically, the acylation of the N^α-amino group disrupts the helix macrodipole and eliminates excessive positive charge. The dipole moment and positive charge can obviously contribute to peptide hydrophilicity. This phenomenon applies exclusively to the N^α-amino group, but not so much to N^ε. […]
Finally, the peptides were purified with solid-phase extraction (SPE) on Isolute ^TM SPE columns (flash, C18, 25 mL). The eluates were fractionated, and the purity of the peptides was determined on a Varian ProStar HPLC system controlled by a Galaxie Chromatography Data System with a Phenomenex Gemini-NX C18 column (4.6 × 150 mm, 110 Å pore size, 5 µm particle size). […]

[2] = test system: Enterococcus faecium ATCC 700221; type: cell-based; conditions: ATCC 700221, 18 h
How it was run: (§1)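 Using Mueller–Hinton broth and an inoculum checked at 600 nm (0.5 × 10^5 CFU/mL), bacteria faced peptide dilutions from 1 to 512 µg/mL for 18 h at 37 °C. Lowest concentration without visible growth defined the MIC, measured in triplicate alongside growth and sterility controls.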

[3] = test system: Klebsiella aerogenes ATCC 13048; type: cell-based; conditions: ATCC 13048, 18 h
How it was run: as §1

[4] = test system: Klebsiella pneumoniae ATCC 700603; type: cell-based; conditions: ATCC 700603, 18 h
How it was run: as §1

[5] = test system: Pseudomonas aeruginosa ATCC 9027; type: cell-based; conditions: ATCC 9027, 18 h
How it was run: as §1

S. aureus ATCC 12598 = type: cell-based, Staphylococcus aureus; conditions: ATCC 12598, 18 h
How it was run: as §1

S. aureus ATCC 25923 = type: cell-based, Staphylococcus aureus; conditions: ATCC 25923, 18 h
How it was run: as §1

[6] = test system: S. aureus ATCC 33591 (MRSA); type: cell-based, Staphylococcus aureus; conditions: ATCC 33591, 18 h
How it was run: as §1

S. aureus ATCC 6538 = type: cell-based, Staphylococcus aureus; conditions: ATCC 6538, 18 h
How it was run: as §1

S. aureus ATCC 9144 = type: cell-based, Staphylococcus aureus; conditions: ATCC 9144, 18 h
How it was run: as §1

[7] = test system: reference strains of Staphylococcus aureus; assay: MIC over the five reference strains of S. aureus (geometric mean, range, selectivity); type: cell-based; conditions: MIC values of Table 3
Experimental: Selectivity indexes were calculated based on the MHC5 and geometric mean (GM) of MIC values against S. aureus strains.
Tests of the antibacterial activity were carried out as we just described. Briefly, for assays, the following strains of ESKAPE bacteria were chosen: Acinetobacter baumannii ATCC BAA-1605, Enterococcus faecium ATCC 700221, Klebsiella aerogenes ATCC 13048 (formerly Enterobacter aerogenes), Klebsiella pneumoniae ATCC 700603, and Pseudomonas aeruginosa ATCC 9027. Moreover, the reference strains of Staphylococcus aureus were used: S. aureus ATCC 25923, S. aureus ATCC 6538, S. aureus ATCC 33591 (MRSA), S. aureus ATCC 9144, and S. aureus ATCC 12598. Before experiments, all the strains were stored at −80 °C in Roti®-Store cryo vials (Carl Roth GmbH, Karlsruhe, Germany). To evaluate the activity of the compounds, bacteria were transferred into fresh Mueller–Hinton medium (Becton Dickinson, Warszawa, Poland) and incubated for 24 h at 37 °C. In the next step, bacterial inoculums were seeded on Mueller–Hinton agar plates (BioMaxima SA, Lublin, Poland) and incubated again for 24 h. The MIC values were determined using the broth microdilution method according to the Clinical and Laboratory Standards Institute Protocol. […] The results were read after incubation for 18 h at 37 °C. […]

[8] = 18 h

With `CCCCCCCC(=O)NCCCC[C@H](NC(=O)[C@H](CCCNC(=N)N)NC(=O)[C@@H](NC(=O)[C@@H](NC(=O)[C@H](CCC(N)=O)NC(=O)[C@H](CCCNC(=N)N)NC(=O)[C@@H](NC(=O)[C@H](CCCCN)NC(=O)[C@H](CC(=O)O)NC(=O)[C@H](Cc1ccccc1)NC(=O)[C@H](CC(C)C)NC(=O)[C@@H](N)CCCNC(=N)N)[C@@H](C)CC)C(C)C)[C@@H](C)CC)C(N)=O` [XI, retro-KR12-C8^ε-NH2] (H-RLFDKIRQVIRK(Octanoyl)-NH2) the “HPLC tR (adjusted retention time, t'R)” value [1] was 5.05 min, the “MIC E. faecium” value [2] was 32 mg/L (≈ 18.9 µM) and the “MIC K. aerogenes” value [3] was 512 mg/L (≈ 302 µM). For the same compound, the “MIC K. pneumoniae” value [4] was 512 mg/L (≈ 302 µM), the “MIC P. aeruginosa” value [5] was 128 mg/L (≈ 75.4 µM) and the “MIC S. aureus 12598” value (S. aureus ATCC 12598) was 512 mg/L (≈ 302 µM). For the same compound, the “MIC S. aureus 25923” value (S. aureus ATCC 25923) was 128 mg/L (≈ 75.4 µM), the “MIC S. aureus 33591” value [6] was 512 mg/L (≈ 302 µM) and the “MIC S. aureus 6538” value (S. aureus ATCC 6538) was 16 mg/L (≈ 9.43 µM). For the same compound, the “MIC S. aureus 9144” value (S. aureus ATCC 9144) was 256 mg/L (≈ 151 µM), the “GM (geometric mean of the MIC values against S. aureus)” value [7] was 168.9 and the “MIC A. baumannii” value [8] was 64 mg/L (≈ 37.7 µM).
